Literature values, collected in patent US20250134829A1, “LOW-DOSE, STABLE-RELEASE TRANSDERMAL PREPARATION AND PATCH, AND METHOD FOR THEIR PRODUCTION” (PÉCSI TUDOMÁNYEGYETEM, priority 2022, published 2025).

Key:
[1] = tested on: capsaicin-sensitive sensory nerve endings; conditions: high dose (6-8%) of capsaicin locally
[2] = tested on: patients suffering from low back pain; conditions: topical nonivamide treatment

Row | Structure (SMILES) | duration of disabling of the capsaicin-sensitive sensory nerve endings (desensitization) [1] | plasma level of the neuropeptide somatostatin [2]
1 | COc1cc(CNC(=O)CCCC/C=C/C(C)C)ccc1O [capsaicin] | 2-3 months | –
2 | CCCCCCCCC(=O)NCc1ccc(O)c(OC)c1 [nonivamide] | – | threefold increase
